What was measured:
[1] = system: Normal human keratinocytes; assay: Screening of expression of junction protein messengers in keratinocytes (PCR array); type: cell-based; conditions: 1.5 mM, 24 hours, Control: 100%
Description: The activity of Acacia hydrolysate was studied by quantitative RT-PCR on the level of expression of 16 genes mainly coding for tight junction proteins as well as for the major proteins of the communicating junctions of the epidermis. […] The expression of the markers was evaluated by quantitative RT-PCR (PCR array). The variation in the expression of the markers studied compared to the control was expressed in percentage (Control: 100%). The levels of expression are classified in the following manner: […]

[2] = system: Normal human fibroblasts; assay: Gene expression of markers of the dermal matrix and antioxidant defences by fibroblasts (quantitative RT-PCR in real time); type: cell-based; conditions: 5 ng/ml, 24h
Description: The effect of Acacia hydrolysate on the modulation of the extra-cellular matrix of the dermis and on the stimulation of the anti-oxidant defences was evaluated on a dermal fibroblasts model in which the gene expression of elastin, MMP1 and heme oxygenase 1 was studied by quantitative RT-PCR in real time.
Normal human fibroblasts were treated for 24h with 0.01% and 0.05% Acacia hydrolysate (w/v) or with the reference TGFβ1 at 5 ng/ml. The gene expression of the selected markers was analysed by quantitative RT-PCR in real time.
The results were analysed statistically by a one-way variance analysis (ANOVA) followed by a Dunnett test: • ns p>0.05: not significant • *0.01<p<0.05: significant • **0.001<p<0.01: very significant • ***p<0.001: highly significant
The level of gene expression was expressed in relative quantity (RQ) and the effect of the treatment in relation to the control cells in percentage increase or inhibition.

[Ca+2].[Cl-].[Cl-] [CaCl2, calcium chloride]
Cingulin messenger expression [1]: 337 % Control | Claudin 1 messenger expression [1]: 216 % Control | Gap junction protein (β2 messenger expression) [1]: 43 % Control | Occludin messenger expression [1]: 445 % Control

TGFβ1: reference TGFβ1 at 5 ng/ml
ELASTIN gene expression, percentage increase or inhibition vs control cells [2]: +559% | MMP1 gene expression, percentage increase or inhibition vs control cells [2]: −88% | ELASTIN gene expression, relative quantity (RQ) ([2]; control cells 1.00): 6.59 | MMP1 gene expression, relative quantity (RQ) ([2]; control cells 1.00): 0.12
